Several values for one entry are separate records, joined by “and”; a condition that tells them apart may be missing. Equal values may be shown once.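 Assay format: 96-well plates, 48-hour exposure. GI50 = concentration required for 50% inhibition of growth. TGI is the concentration that stops growth completely.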
Columns and labels:
Assay in all cases: NCI anticancer screen, dose series, 48 h
SF-295 CNS = test system: SF-295 CNS
HT29 colon = test system: HT29 colon
HS 578T breast = test system: HS 578T breast
HCT-116 colon = test system: HCT-116 colon
HCC-2998 colon = test system: HCC-2998 colon
HCT-15 colon = test system: HCT-15 colon
SK-MEL-2 melanoma = test system: SK-MEL-2 melanoma
RPMI-8226 leukemia = test system: RPMI-8226 leukemia
M14 melanoma = test system: M14 melanoma
OVCAR-4 ovarian = test system: OVCAR-4 ovarian

SMILES	GI50 (SF-295 CNS) [µM]	TGI (SF-295 CNS)	GI50 (HT29 colon) [µM]	TGI (HT29 colon)	GI50 (HS 578T breast) [µM]	TGI (HS 578T breast)	GI50 (HCT-116 colon) [µM]	TGI (HCT-116 colon)	GI50 (HCC-2998 colon) [µM]	TGI (HCC-2998 colon) [µM]	GI50 (HCT-15 colon) [µM]	TGI (HCT-15 colon)	GI50 (SK-MEL-2 melanoma) [µM]	TGI (SK-MEL-2 melanoma)	GI50 (RPMI-8226 leukemia) [µM]	TGI (RPMI-8226 leukemia) [µM]	GI50 (M14 melanoma) [µM]	TGI (M14 melanoma)	GI50 (OVCAR-4 ovarian) [µM]	TGI (OVCAR-4 ovarian)
COc1ccc2c(c1)=C(C=C1C=CN(O)C=C1)C(=O)N=2	34.3	> 93.8 µM	17.1	> 66.8 µM	32.1	> 86.3 µM	28.9	> 100 µM	21.8	47	25	> 75.9 µM	26.7	73.7 µM	24.1	> 67.7	24.6	65.9 µM	9.96	> 100 µM
COc1ccc(-n2cc(-c3cc(OC)c(OC)c(OC)c3)nc2SCc2ccccc2)cc1	> 100	> 100 µM	35.6	> 100 µM	> 100	> 100 µM	17.5	> 100 µM	45.5	> 100	> 100	> 100 µM	> 100	> 100 µM	5.5	> 100	> 100	> 100 µM	13.3	> 100 µM
N=C(N)c1ccc(OCCOCCOc2ccc(C(=N)N)cc2)cc1	44.7	> 100 µM	78.3	> 100 µM	67.3	> 100 µM	> 100	> 100 µM	> 100	> 100	84.1	> 100 µM	38.2	> 100 µM	68.5	> 100	> 100	> 100 µM	> 100	> 100 µM
S=C(N/N=C(/c1ccccc1)c1ccccn1)N1CCCCC1	0.188	1.75 µM and 2.11 µM	0.0345	2.17 µM and 2.44 µM	1.3	6.74 µM and 5.88 µM	< 0.001	1.6 µM and 1.56 µM		2.1	< 0.001	2.22 µM and 3.94 µM	< 0.001	2.01 µM and 2.36 µM	< 0.001			1.66 µM and 0.543 µM	0.119	3.12 µM and 1.43 µM
Clc1ccc(/C=C/c2cc(N3CCOCC3)c3cc(Cl)c(Cl)cc3n2)cc1	> 100	> 100 µM	> 100	> 100 µM	> 100	> 100 µM	> 100	> 100 µM	> 100	> 100	> 100	> 100 µM	> 100	> 100 µM	0.311	1.09	> 100	> 100 µM	> 100	> 100 µM
CC(=O)CCc1ccc(OC2OC(COC(=O)c3cc(O)c(O)c(O)c3)C(O)C(O)C2OC(=O)/C=C/c2ccccc2)cc1 (centres undefined)	24.5	52.2 µM	29.6	82.2 µM	33.8	> 100 µM	15.1	29.9 µM	15.3	30.2	26.2	> 100 µM	20.2	43 µM	23.7	85.3	18.6	37.4 µM	23.8	89.7 µM
C/C=C/C/C=C/CCC(=O)[C@H]1O[C@H]1C(N)=O		34.8 µM		31.8 µM	15.9	> 100 µM	8.15	22 µM	15	28.5	8.45	24.1 µM	15.9	32.5 µM	6.58	54.2	13.3	30 µM		26.1 µM

Reference: PubChem BioAssay (NCI)
